# Results: US7557181B2, “Pan-HER antagonists and methods of use” (Molecular Logix, Inc., priority 2005, dated 2009)
# Legend:
# [1] = test system: HER5 cells (mouse fibroblast cells that overexpress human EGFR); assay: HER5 cell proliferation stimulation assay (WST-1); format: cell-based; conditions: serum-free, 48 hour proliferation period, FIG. 3
# Method: Hung (MD Anderson Cancer Center). Stock cultures of HER5 were propagated in D-MEM/F12 medium containing 10% fetal bovine serum, 100 units/ml of penicillin and 100 ug/ml of streptomycin in a water-jacketed incubator at 37° C. in a humidified 5% CO2 atmosphere. For HER5 proliferation assays, the cells were changed into DMEM/F12 without serum for 24 hours. Cells were then trypsinized and suspended at 1E5 cells/ml. […] Fifty microliters of cell suspension (5000 cells) were added to appropriate wells bringing the total volume to 100 ul at the desired concentrations. Plates were incubated for a 48 hour proliferation period. Cell proliferation was determined by addition of 10 ul/well of WST-1 Cell Proliferation Reagent (Roche Applied Sciences, Indianapolis, Ind.) for the last three hours of the proliferation period. WST-1 is a tetrazolium salt that is cleaved to formazan dye by mitochondrial dehydrogenases in viable cells. The amount of formazan was measured at 450 nm using a microplate reader (Dynex Technologies) with MRX Revelation software.
# [2] = test system: MCF-7 cells (human breast cancer cell line that express HER2 and HER3); assay: MCF-7 cell proliferation stimulation assay (WST-1); format: cell-based; conditions: serum-free, 72 hours, FIG. 4
# Method: MCF-7 cells were obtained from the American Type Culture Collection (ATCC). Stock cultures of MCF-7 were maintained in Eagle's MEM supplemented with 1% ITS-X (Invitrogen) and 10% fetal bovine serum. For proliferation assays, MCF-7 cells were transferred to serum-free medium (SFM) for 24 hours and then trypsinized and suspended at 1E5 cells/mL in SFM. Fifty microliters of cell suspension (5000 cells) were plated per well in 96 well microtiter plates. Serial dilutions of HER ligands or mutant proteins were prepared at twice the final concentration in SFM and 50 ul was added to wells, bringing the final volume to 100 ul at the desired final concentration. Plates were incubated for 72 hours at 37 C in a humidified 5% CO2 atmosphere. Cell proliferation was determined by addition of 10 ul/well of WST-1 Cell Proliferation Reagent (Roche Applied Sciences, Indianapolis, Ind.) for the last three hours of the proliferation period.
substance,measurement,setting,value
"Epidermal growth factor [EGF, agonistic ligand for EGFR]",stimulation of HER5 cells (proliferation),[1],can be stimulated
same,stimulation of MCF-7 cells (proliferation),[2],not
